Where “and” joins values, the source holds several entries; their conditions need not be identical. Equal entries are not always repeated.
How the values were obtained:
OCI-AML5 cells = experiment: Cell cycle profile (Hoechst 33342 flow cytometry); type: cell-based, H. sapiens; settings: 24 h
Protocol: For cell cycle experiments, 500,000 cells in exponential growth phase were incubated in pre-warmed media containing 10 μg/mL Hoechst 33342 during 45 min in incubator (37 °C in 5% CO2). After wash, cells were resuspended in cold media and recorded on BD FACSCelesta cytometer at low flow rate and analyzed with FlowJo v10 (Tree Star).

OCI-AML5 cells proteome = experiment: Whole-proteome mass spectrometry analysis; type: cell-based, H. sapiens; settings: OCI-AML5, 5 hours, 8 μM S656
Protocol: Whole proteome was performed as previously described (Moison et al, [2024]). We treated 10 million OCI-AML5 cells in triplicate with DMSO or 8 μM S656 for 5 h. Collected cells were washed in PBS and cell pellets lysed in Triton X-100 buffer (10 mM PIPES pH 7.4, 0.5% Triton X-100, 300 mM Sucrose, 100 mM NaCl, 3 mM MgCl2, 0.5 mM EDTA + protease inhibitors). Following MS analysis, the data were processed using PEAKS X Pro (Bioinformatics Solutions, Waterloo, ON) and a Uniprot human database (20366 entries) with trypsin as the enzyme. Differential Enrichment analysis of Proteomics data (DEP) package (Zhang et al, [2018]) in R was used to analyze the data (excluding proteins identified based on a single peptide), including data filtering, normalization, imputation of missing values and statistical testing of differentially expressed proteins.

[1] = system: OCI-AML5 and U937 cell lines; experiment: Synergistic interaction assay with THZ531 (Bliss score); type: cell-based
Description: 3. It may be worthwhile to investigate whether the CDK12/13 inhibitor THZ531 could synergize with S656 or analogues like UOM-005636 that specifically degrade Cyclin K, in combination cytotoxicity assays, assessing selective suppression of AML viability over normal cells. Both […]
inhibiting CDK12, and S656 / UOM-005636 by degrading Cyclin K. Similar synergistic effects were observed by Katharina et al., where THZ531 promoted prostate ca ncer cell sensitivity to androgen deprivation therapy [Frei, K et. al. Inhibition of the Cyclin K-CDK12 complex induces DNA damage and increases the effect of androgen deprivation therapy in prostate cancer. Int J […]
Indeed, THZ531 is a covalent CDK12/13 inhibitor that specifically binds to the kinase pocket of […]
pocket of CDK12, and that pre-incubation with THZ531 competes with S656-mediated Cyclin K degradation (see Figure 5E).
We performed a synergistic interaction assay between THZ531 and S656 or UOM-005636 in OCI-AML5 and U937 cell lines (see below). […]
interactions between THZ531 and our cyclin K degrader molecules. This is likely due to both drugs competing for the same binding site, rather than acting through complementary pathways. […]

CN(C)c1ccc(CC(=O)Nc2ncc(SCc3cccnc3)s2)cc1 [S656]
percentage of cells in G1 (OCI-AML5 cells; S656 1uM): 50.8% and 63.1% and 58.6%
percentage of cells in G2/M (OCI-AML5 cells; S656 1uM): 26.6% and 23.9% and 22.5%
percentage of cells in S (OCI-AML5 cells; S656 1uM): 21.5% and 12.1% and 18.1%
percentage of cells in G1 (OCI-AML5 cells; S656 3uM): 69.1% and 60.5% and 65.7%
percentage of cells in G2/M (OCI-AML5 cells; S656 3uM): 17.7% and 29.1% and 24.3%
percentage of cells in S (OCI-AML5 cells; S656 3uM): 12% and 9.62% and 8.06%
log2FC CCNK (OCI-AML5 cells proteome): -7.264
log2FC GNL1 (OCI-AML5 cells proteome): -6.619
log2FC PM34 (OCI-AML5 cells proteome): -4.278
log2FC PMYT1 (OCI-AML5 cells proteome): -4.723
log2FC RIOK2 (OCI-AML5 cells proteome): -4.751
synergistic interaction with THZ531 (Bliss score) [1]: moderate to very low synergistic
